For assay [1], the system named is Myelin Basic Protein (MBP). Briefly: Ex.7 neuroprotective HIE rat model: myelin basic protein staining. It is filed as in vivo. The settings on record: vs vehicle. The source says: FIG. 21. Myelin Basic Protein (MBP) staining of brain coronal sections in rat pups that were pre-treated with estetrol. Brains were removed upon sacrifice at postnatal day 14 and paraformaldehyde-fixed and paraffin-embedded brain samples were coronally sectioned at the hippocampus region. The sections were processed for detection of white matter damage through immunohistological staining with anti-MBP antibody. (A-F) MBP staining of brain coronal sections (scale bar: 2 mm) is shown. (G-L) MBP staining of cingulum of the left hemisphere is (scale bar: 2 mm) shown. (M) The ratio of the MBP positive areas OD ratio was calculated as the MBP positive area OD of the ipsilateral hemisphere divided by the MBP positive area OD of the contralateral hemisphere. 10 samples from each study group were analyzed. The ratio of the MBP positive area OD in the Sham group was considered by default as 1.0.
The sections were processed for immunohistochemical detection of neuronal myelin basic protein disruption. For antigen retrieval, the sections were heated in 10 mmol/L citrate buffer (pH 6.0) at 100° C. for 10 min. […] 10 samples from each study group of both study designs were analyzed with the aid of an image scanner (Nanozoomer Virtual Microscopy, Hamamatsu, Tokyo, Japan) and ImageJ software (NIH, USA). The MBP positive areas optical densities in the ipsilateral and contralateral hemispheres were measured. […]

For assay [2], the system named is intact cells in hippocampus and cortex. Nature of the assay: Ex.8 neuroprotective HIE rat model: intact cell counting. The assay is classed as in vivo. As for the experimental part: Newborn rat pups were assigned to one of the following 14 groups from postnatal day 4 (FIG. 23(A)): Sham group (n=12), Vehicle group (n=17), 5 mg/kg/day E4 (n=13), 10 mg/kg/day E4 (n=10), 5 mg/kg/day E4+1.6 mg/kg/day PROG (n=11), 10 mg/kg/day E4+1.6 mg/kg/day PROG (n=11), 5 mg/kg/day E4+16 mg/kg/day PROG (n=11), 10 mg/kg/day E4+16 mg/kg/day PROG (n=11), 5 mg/kg/day E4+136 ng//kg/day E2 (n=11), 10 mg/kg/day E4+136 ng/kg/day E2 (n=11), 5 mg/kg/day E4+1.6 mg/kg/day PROG+136 ng/kg/day (n=13) E2, 10 mg/kg/day E4+1.6 mg/kg/day PROG+136 ng/kg/day E2 (n=16), 5 mg/kg/day E4+16 mg/kg/day PROG+136 ng/kg/day E2 (n=11), 10 mg/kg/day E4+16 mg/kg/day PROG+136 ng/kg/day groups (n=13). Intraperitoneal injections of the pups from study groups were performed from postnatal day 4 to postnatal day 7 inclusively. At day 7, 30 minutes after last injection, animals were anesthetized with isoflurane (induction, 3.0%; maintenance, 1.5%), and the rat pups from vehicle and all the other groups, except the sham group, passed through surgery encompassing left common carotid artery double ligation and cut. After the procedure, the pups were returned to their dams and were allowed to recover for 1 hour. The pups were then placed in the humidified hypoxic in vivo cabinet (CoyLab, Grass Lake, Mich., USA). Hypoxia was produced by the inhalation of 11%-8% of oxygen balanced by nitrogen at decreased concentration of oxygen for 20 minutes, followed by inhalation of 8% oxygen and 92% nitrogen at constant concentration for 35 minutes. All the manipulations were performed at 37° C. The Sham group went through similar procedures without left common carotid artery ligation followed by neither hypoxia nor injection. […]
Intact cell counting was performed on hematoxylin-eosin-stained sections of the rat pups brains at magnification 400× in 3 fields of the respective brain area. […] The sections were analyzed with the aid of a microscope (Olympus BX51, Olympus, Tokyo, Japan), an image scanner (DotSlide Digital Virtual Microscopy, Olympus, Germany) and ImageJ software (NIH, US). […]

Here are results for one molecule from patent US9808470B2, “Estrogenic components for use in the treatment of neurological disorders” (UNIVERSITE DE LIEGE, priority 2012, dated 2017).

`C[C@]12CC[C@@H]3c4ccc(O)cc4CC[C@H]3[C@@H]1[C@@H](O)[C@@H](O)[C@@H]2O` [E4, 1,3,5(10)-estratrien-3,15α,16α,17β-tetrol]: the “ratio of the MBP-positive area OD” value in assay [1] (5 mg/kg/day E4 pre-treated) and in assay [1] (50 mg/kg/day E4 pre-treated) was “significantly higher” each time. Moreover, the “number of intact cells per visual field” value stood at 72.10±5.93 in assay [2] (5 mg/kg/day E4, SGZ); 227.30±14.18 in assay [2] (10 mg/kg/day E4, DG); 86.10±5.84 in assay [2] (10 mg/kg/day E4, SGZ).
